Results taken from ChEMBL document CHEMBL3885881, “DrugMatrix”.

Species on record: Rattus norvegicus
Assay: DrugMatrix - Regimen: Daily Repeat
Type: toxicity, organism-based, Sprague-Dawley
Parameters: regimen Daily Repeat, gender Male, age 6-8 weeks
Conditions: in vivo, po, 0 mg/kg, route oral GAVAGE, dose level Control, vehicle .5 % CMC; for ABSOLUTE BASOPHIL / ABSOLUTE EOSINOPHIL / ABSOLUTE LYMPHOCYTE / ABSOLUTE MONOCYTE / ABSOLUTE SEGMENTED NEUTROPHIL / BASOPHIL / EOSINOPHIL / ERYTHROCYTE COUNT / HEMATOCRIT / HEMOGLOBIN / LEUKOCYTE COUNT / LYMPHOCYTE / MEAN CORPUSCULAR HEMOGLOBIN / MEAN CORPUSCULAR HEMOGLOBIN CONCENTRATION / MEAN CORPUSCULAR VOLUME / MONOCYTE / NEUTROPHIL / NUCLEATED RED BLOOD CELLS / PLATELET COUNT: tissue Blood; for ALANINE AMINOTRANSFERASE / ALBUMIN / ALKALINE PHOSPHATASE / ASPARTATE AMINOTRANSFERASE / BLOOD UREA NITROGEN / CARBON DIOXIDE / CHLORIDE / CHOLESTEROL / CREATININE / GLUCOSE / LACTATE DEHYDROGENASE / LIPASE / PHOSPHORUS / POTASSIUM / SODIUM / TOTAL BILIRUBIN / TOTAL PROTEIN / URIC ACID: tissue Plasma

SMILES: ClC(Cl)Br [BROMODICHLOROMETHANE]
- ABSOLUTE BASOPHIL (72 h, time 3 day): 0 CELLS/uL
- ABSOLUTE EOSINOPHIL (72 h, time 3 day): 279.83 CELLS/uL
- ABSOLUTE LYMPHOCYTE (72 h, time 3 day): 13152.5 CELLS/uL
- ABSOLUTE MONOCYTE (72 h, time 3 day): 1013.83 CELLS/uL
- ABSOLUTE SEGMENTED NEUTROPHIL (72 h, time 3 day): 2420.5 CELLS/uL
- BASOPHIL (72 h, time 3 day): 0%
- EOSINOPHIL (72 h, time 3 day): 1.67%
- ERYTHROCYTE COUNT (72 h, time 3 day): 5.26 x10E6/uL
- HEMATOCRIT (72 h, time 3 day): 32.22%
- HEMOGLOBIN (72 h, time 3 day): 12.02 G/DL
- LEUKOCYTE COUNT (72 h, time 3 day): 16.87 x10E3/uL
- LYMPHOCYTE (72 h, time 3 day): 77.83%
- MEAN CORPUSCULAR HEMOGLOBIN (72 h, time 3 day): 22.93 pg
- MEAN CORPUSCULAR HEMOGLOBIN CONCENTRATION (72 h, time 3 day): 37.32 G/DL
- MEAN CORPUSCULAR VOLUME (72 h, time 3 day): 61.4 fL
- MONOCYTE (72 h, time 3 day): 6%
- NEUTROPHIL (72 h, time 3 day): 14.5%
- NUCLEATED RED BLOOD CELLS (72 h, time 3 day): 0 /100WBC
- PLATELET COUNT (72 h, time 3 day): 1122.17 x10E3/uL
- ALANINE AMINOTRANSFERASE (72 h, time 3 day): 55.67 u/L
- ALBUMIN (72 h, time 3 day): 4.35 G/DL
- ALKALINE PHOSPHATASE (72 h, time 3 day): 362.67 u/L
- ASPARTATE AMINOTRANSFERASE (72 h, time 3 day): 96 u/L
- BLOOD UREA NITROGEN (72 h, time 3 day): 18 mg/dL
- CARBON DIOXIDE (72 h, time 3 day): 27.5 mmol/L
- CHLORIDE (72 h, time 3 day): 100.17 MEQ/L
- CHOLESTEROL (72 h, time 3 day): 74.5 mg/dL
- CREATININE (72 h, time 3 day): 0.17 mg/dL
- GLUCOSE (72 h, time 3 day): 141.67 mg/dL
- LACTATE DEHYDROGENASE (72 h, time 3 day): 682.5 u/L
- LIPASE (72 h, time 3 day): 10 u/L
- PHOSPHORUS (72 h, time 3 day): 11.5 mg/dL
- POTASSIUM (72 h, time 3 day): 6.41 MEQ/L
- SODIUM (72 h, time 3 day): 141.2 MEQ/L
- TOTAL BILIRUBIN (72 h, time 3 day): 0.18 mg/dL
- TOTAL PROTEIN (72 h, time 3 day): 5.88 G/DL
- URIC ACID (72 h, time 3 day): 1.4 mg/dL
- ABSOLUTE BASOPHIL (120 h, time 5 day): 0 CELLS/uL
- ABSOLUTE EOSINOPHIL (120 h, time 5 day): 18.5 CELLS/uL
- ABSOLUTE LYMPHOCYTE (120 h, time 5 day): 8146.83 CELLS/uL
- ABSOLUTE MONOCYTE (120 h, time 5 day): 204.83 CELLS/uL
- ABSOLUTE SEGMENTED NEUTROPHIL (120 h, time 5 day): 1329.83 CELLS/uL
- BASOPHIL (120 h, time 5 day): 0%
- EOSINOPHIL (120 h, time 5 day): 0.17%
- ERYTHROCYTE COUNT (120 h, time 5 day): 5.37 x10E6/uL
- HEMATOCRIT (120 h, time 5 day): 33.17%
- HEMOGLOBIN (120 h, time 5 day): 12.07 G/DL
- LEUKOCYTE COUNT (120 h, time 5 day): 9.7 x10E3/uL
- LYMPHOCYTE (120 h, time 5 day): 85.33%
- MEAN CORPUSCULAR HEMOGLOBIN (120 h, time 5 day): 22.52 pg
- MEAN CORPUSCULAR HEMOGLOBIN CONCENTRATION (120 h, time 5 day): 36.42 G/DL
- MEAN CORPUSCULAR VOLUME (120 h, time 5 day): 61.78 fL
- MONOCYTE (120 h, time 5 day): 1.83%
- NEUTROPHIL (120 h, time 5 day): 12.67%
- NUCLEATED RED BLOOD CELLS (120 h, time 5 day): 0 /100WBC
- PLATELET COUNT (120 h, time 5 day): 907.5 x10E3/uL
- ALANINE AMINOTRANSFERASE (120 h, time 5 day): 58.5 u/L
- ALBUMIN (120 h, time 5 day): 4.4 G/DL
- ALKALINE PHOSPHATASE (120 h, time 5 day): 377.67 u/L
- ASPARTATE AMINOTRANSFERASE (120 h, time 5 day): 140.33 u/L
- BLOOD UREA NITROGEN (120 h, time 5 day): 15.33 mg/dL
- CARBON DIOXIDE (120 h, time 5 day): 32.17 mmol/L
- CHLORIDE (120 h, time 5 day): 100 MEQ/L
- CHOLESTEROL (120 h, time 5 day): 71.83 mg/dL
- CREATININE (120 h, time 5 day): 0.18 mg/dL
- GLUCOSE (120 h, time 5 day): 185 mg/dL
- LACTATE DEHYDROGENASE (120 h, time 5 day): 241.5 u/L
- LIPASE (120 h, time 5 day): 9.5 u/L
- PHOSPHORUS (120 h, time 5 day): 13.02 mg/dL
- POTASSIUM (120 h, time 5 day): 6.45 MEQ/L
- SODIUM (120 h, time 5 day): 143.45 MEQ/L
- TOTAL BILIRUBIN (120 h, time 5 day): 0.22 mg/dL
- TOTAL PROTEIN (120 h, time 5 day): 6.1 G/DL
- URIC ACID (120 h, time 5 day): 1 mg/dL
- ABSOLUTE BASOPHIL ([…], time 14 day): 0 CELLS/uL
- ABSOLUTE EOSINOPHIL ([…], time 14 day): 117.17 CELLS/uL
- ABSOLUTE LYMPHOCYTE ([…], time 14 day): 13562 CELLS/uL
- ABSOLUTE MONOCYTE ([…], time 14 day): 534.83 CELLS/uL
- ABSOLUTE SEGMENTED NEUTROPHIL ([…], time 14 day): 2486 CELLS/uL
- BASOPHIL ([…], time 14 day): 0%
- EOSINOPHIL ([…], time 14 day): 0.83%
- ERYTHROCYTE COUNT ([…], time 14 day): 6.14 x10E6/uL
- HEMATOCRIT ([…], time 14 day): 36.87%
- HEMOGLOBIN ([…], time 14 day): 13.87 G/DL
- LEUKOCYTE COUNT ([…], time 14 day): 16.7 x10E3/uL
- LYMPHOCYTE ([…], time 14 day): 81%
- MEAN CORPUSCULAR HEMOGLOBIN ([…], time 14 day): 22.63 pg
- MEAN CORPUSCULAR HEMOGLOBIN CONCENTRATION ([…], time 14 day): 37.62 G/DL
- MEAN CORPUSCULAR VOLUME ([…], time 14 day): 60.15 fL
- MONOCYTE ([…], time 14 day): 3.17%
- NEUTROPHIL ([…], time 14 day): 15%
- NUCLEATED RED BLOOD CELLS ([…], time 14 day): 0 /100WBC
- PLATELET COUNT ([…], time 14 day): 974.83 x10E3/uL
- ALANINE AMINOTRANSFERASE ([…], time 14 day): 52.33 u/L
- ALBUMIN ([…], time 14 day): 4.48 G/DL
- ALKALINE PHOSPHATASE ([…], time 14 day): 346.17 u/L
- ASPARTATE AMINOTRANSFERASE ([…], time 14 day): 81 u/L
- BLOOD UREA NITROGEN ([…], time 14 day): 15.67 mg/dL
- CARBON DIOXIDE ([…], time 14 day): 34.33 mmol/L
- CHLORIDE ([…], time 14 day): 100.17 MEQ/L
- CHOLESTEROL ([…], time 14 day): 70.83 mg/dL
- CREATININE ([…], time 14 day): 0.22 mg/dL
- GLUCOSE ([…], time 14 day): 141.17 mg/dL
- LACTATE DEHYDROGENASE ([…], time 14 day): 121.33 u/L
- LIPASE ([…], time 14 day): 8.33 u/L
- PHOSPHORUS ([…], time 14 day): 9.97 mg/dL
- POTASSIUM ([…], time 14 day): 6.4 MEQ/L
- SODIUM ([…], time 14 day): 143.72 MEQ/L
- TOTAL BILIRUBIN ([…], time 14 day): 0.22 mg/dL
- TOTAL PROTEIN ([…], time 14 day): 6.45 G/DL
- URIC ACID ([…], time 14 day): 1.25 mg/dL
